Assays:
Test in all cases: relative viability (nuclei count vs DMSO), 5 days (fraction); higher = more cells survive
AZD8055 + Bortezomib = compound: COc1ccc(-c2ccc3c(N4CCOC[C@@H]4C)nc(N4CCOC[C@@H]4C)nc3n2)cc1CO [AZD8055] + CC(C)C[C@H](NC(=O)[C@H](Cc1ccccc1)NC(=O)c1cnccn1)B(O)O [Bortezomib] (partner 0.002 µM)
How it was run: (§1)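 Relative viability was taken as the ratio of nuclei in treated wells to nuclei in vehicle wells. Lung cancer cell lines in 1536-well plates received compounds by pin tool one day after seeding, either one drug alone or a fixed anchor-drug dose plus five library-drug doses (not always all listed) in √10 steps. Nuclei were counted on 4× images after 5 days of treatment, and values are medians of duplicate plates.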

AZD8055 + AZD7762 = compound: COc1ccc(-c2ccc3c(N4CCOC[C@@H]4C)nc(N4CCOC[C@@H]4C)nc3n2)cc1CO [AZD8055] + NC(=O)Nc1cc(-c2cccc(F)c2)sc1C(=O)N[C@H]1CCCNC1 [AZD7762] (partner 0.2 µM)
How it was run: as §1

AZD8055 + Tozasertib = compound: COc1ccc(-c2ccc3c(N4CCOC[C@@H]4C)nc(N4CCOC[C@@H]4C)nc3n2)cc1CO [AZD8055] + Cc1cc(Nc2cc(N3CCN(C)CC3)nc(Sc3ccc(NC(=O)C4CC4)cc3)n2)n[nH]1 [Tozasertib] (partner 0.1 µM)
How it was run: as §1

AZD8055 + Decitabine = compound: COc1ccc(-c2ccc3c(N4CCOC[C@@H]4C)nc(N4CCOC[C@@H]4C)nc3n2)cc1CO [AZD8055] + Nc1ncn([C@H]2C[C@H](O)[C@@H](CO)O2)c(=O)n1 [Decitabine] (partner 2 µM)
How it was run: as §1

| Cell Line | relative viability (AZD8055 + Bortezomib; first compound 0.01 µM) | relative viability (AZD8055 + Bortezomib; first compound 0.03162 µM) | relative viability (AZD8055 + Bortezomib; first compound 0.1 µM) | relative viability (AZD8055 + Bortezomib; first compound 0.3162 µM) | relative viability (AZD8055 + Bortezomib; first compound 1 µM) | relative viability (AZD8055 + AZD7762; first compound 0.01 µM) | relative viability (AZD8055 + AZD7762; first compound 0.03162 µM) | relative viability (AZD8055 + AZD7762; first compound 0.1 µM) | relative viability (AZD8055 + AZD7762; first compound 0.3162 µM) | relative viability (AZD8055 + AZD7762; first compound 1 µM) | relative viability (AZD8055 + Tozasertib; first compound 0.01 µM) | relative viability (AZD8055 + Tozasertib; first compound 0.03162 µM) | relative viability (AZD8055 + Tozasertib; first compound 0.1 µM) | relative viability (AZD8055 + Tozasertib; first compound 0.3162 µM) | relative viability (AZD8055 + Tozasertib; first compound 1 µM) | relative viability (AZD8055 + Decitabine; first compound 0.01 µM) | relative viability (AZD8055 + Decitabine; first compound 0.03162 µM) | relative viability (AZD8055 + Decitabine; first compound 0.1 µM) | relative viability (AZD8055 + Decitabine; first compound 0.3162 µM) | relative viability (AZD8055 + Decitabine; first compound 1 µM) |
| --- | --- | --- | --- | --- | --- | --- | --- | --- | --- | --- | --- | --- | --- | --- | --- | --- | --- | --- | --- | --- |
| HCC-366 | 1.31 | 0.863 | 0.98 | 0.337 | 0.123 | 0.364 | 0.255 | 0.268 | 0.124 | 0.0821 | 0.14 | 0.0951 | 0.0932 | 0.0432 | 0.0587 | 0.392 | 0.233 | 0.281 | 0.144 | 0.14 |
| HOP-62 | 0.669 | 0.747 | 0.969 | 0.304 | 0.469 | 0.677 | 0.418 | 0.512 | 0.167 | 0.111 | 0.414 | 0.46 | 0.401 | 0.292 | 0.273 | 0.193 | 0.213 | 0.239 | 0.215 | 0.194 |
| LU99A | 0.936 | 0.549 | 0.374 | 0.235 | 0.209 | 0.366 | 0.242 | 0.185 | 0.152 | 0.133 | 0.289 | 0.268 | 0.2 | 0.198 | 0.21 | 1 | 0.666 | 0.417 | 0.222 | 0.188 |
| NCI-H647 | 1.71 | 0.748 | 0.541 | 0.266 | 0.17 | 0.397 | 0.338 | 0.391 | 0.157 | 0.1 | 0.319 | 0.27 | 0.28 | 0.143 | 0.088 | 0.35 | 0.271 | 0.198 | 0.195 | 0.126 |
| A-427 | 1.01 | 0.815 | 0.858 | 0.518 | 0.462 | 0.762 | 0.597 | 0.529 | 0.5 | 0.427 | 0.204 | 0.193 | 0.22 | 0.163 | 0.208 | 0.552 | 0.491 | 0.494 | 0.415 | 0.389 |
| NCI-H441 | 0.502 | 0.577 | 0.396 | 0.168 | 0.186 | 1.24 | 1.14 | 0.837 | 0.562 | 0.382 | 0.591 | 0.767 | 0.499 | 0.309 | 0.295 | 0.284 | 0.233 | 0.225 | 0.206 | 0.246 |
| NCI-H2126 | 1.14 | 1.08 | 1.05 | 0.676 | 0.638 | 1.03 | 1.07 | 0.902 | 0.587 | 0.508 | 0.844 | 0.829 | 0.687 | 0.427 | 0.375 | 0.623 | 0.499 | 0.485 | 0.434 | 0.331 |
| HCC-44 | 1.01 | 0.942 | 0.853 | 0.494 | 0.449 | 1.03 | 1.01 | 0.972 | 0.992 | 0.925 | 1.03 | 0.914 | 0.626 | 0.543 | 0.613 | 0.971 | 0.849 | 0.812 | 0.8 | 0.735 |

Reference: the supplement of paper PMC10307832
